Several values for one entry are separate records, joined by “and”; a condition that tells them apart may be missing. Identical values can stand only once. Like-named read-outs stand apart in the source and are kept apart here.
Columns and labels:
[1] = tested on: human keratinocytes HaCaT; test: Antiproliferative activity, MTT dye reduction assay, HaCaT; type: cell-based; conditions: non-tumor keratinocytes HaCaT, 72 h, n = 6, read-out: Mean IC50 ± SD, HaCaT
Protocol: (§1) The antiproliferative activity of the studied substances was determined by MTT dye reduction assay. The assay is based on the metabolism of MTT by reductases in the mitochondria to formazan, the concentration of which can be determined photometrically. The measured absorbance is an indicator of cell viability and metabolic activity. Cells were seeded in 96-well cell culture plates (1 × 10^3 cells/well). Followed by incubation at 37 °C, 5% CO2 for 24 h. Followed by incubation for 72 h of the cells with the studied substances in twice increasing concentrations. After washing with PBS, 100 µL/well of MTT solution (0.5 mg/mL) was added. After 3 h of incubation, the 96-well plates were washed with PBS, and 100 µL/well of lysing solution (DMSO/Ethanol = 1/1) was added. Optical density was measured at a wavelength of 540 nm. The antiproliferative activity expressed in % of the negative control was calculated according to the following formula:Antiproliferative activity (%) = (1 − (OD540 (sample)/OD540 (negative control))) × 100
(§2) The IC50 values (a concentration that inhibited 50% cell proliferation) were calculated using non-linear regression analysis (GraphPad Prizm8 Software). The statistical analysis included the application of one-way ANOVA followed by Bonferroni’s post hoc test. p < 0.05 was accepted as the lowest level of statistical significance. All results are presented as mean ± SD.

human melanoma SH-4 = test: Antiproliferative activity, MTT dye reduction assay, SH-4; type: cell-based; conditions: for IC50: melanoma SH-4, MTT, 72 h, n = 6, read-out: Mean IC50 ± SD, SH-4; for SI (Selective index): SI = IC50 (non-tumor cell line HaCaT)/IC50 (tumor cell line SH-4)
Protocol: as §1, §2

SH-4 cells [2] = test: Cell cycle analysis, PI stain, flow cytometry; type: cell-based, human; conditions: SH-4, 48 h; for effect on cell cycle distribution (in words): at IC50 doses; for G2 phase, percentage of cells / S phase, percentage of cells / G0/G1 phase, percentage of cells: 1 6 µM, 1A 260 µM, 1B 260 µM, 1C 40 µM, 1D 8 µM, cisplatin 20 µM; for G2 phase, percentage of cells: control 12.1; for S phase, percentage of cells: control 21.6; for G0/G1 phase, percentage of cells: control 63.6
Protocol: After incubation, cells were washed twice with ice-cold PBS and fixed with ice-cold 70% ethanol at −20 °C overnight. The cells were treated with 20 µg/mL RNase A at 37 °C for 60 min, then washed with PBS and finally stained with 20 µg/mL PI in the dark for 30 min. The cellular DNA content for the cell cycle distribution analysis was performed with the system software (BD FACS DIVA software (BD Biosciences, Franklin Lakes, NJ, USA)), plotting at least 10,000 events per sample. Three independent experiments were performed, with two replicates per experiment.

[3] = BALB 3T3 Neutral Red Uptake safety test (cytotoxicity/phototoxicity); type: cell-based, mouse; conditions: mouse, BALB 3T3 clone A31 embryonic fibroblasts, BALB 3T3, NRU, 24 h incubation, n = 6
Protocol: (§3) The Neutral Red Uptake in vitro assay is a colorimetric method for assessing cell viability. This method is based on the ability of living cells to incorporate Neutral Red dye into lysosomes. Mouse embryonic fibroblasts were seeded at 1 × 10^4 cells/100 μL culture medium/well in 96-well cell culture microplates. The cells were incubated for 24 h to allow cell adhesion. The cells were then treated with a solution of the test substances in double-increasing concentrations (from 15 to 4000 μM). The phototoxicity test was performed in parallel on a second 96-well plate, which was irradiated with a solar simulator (LED lamp—Helios-iO (SERIC Ltd., Tokyo, Japan) for 10 min (irradiation dose 0.86 J). After 24 h of incubation, a culture medium containing Neutral Red was added. After 3 h of incubation, the wells were washed with PBS, and a Desorb solution (50% Ethanol, 1% Acetic acid, 49% dH2O) was added. The optical density (OD) was measured by a microplate reader at λ = 540 nm. The percentage of cytotoxicity was calculated according to the following formula:Cytotoxicity (%) = (1 − (OD540 (sample)/OD540 (negative control))) × 100 Phototoxicity is expressed by Photoirritation factor (PIF), PIF = CC50 − Irr/CC50 +Irr* * Irradiation

[4] = tested on: mouse embryonic fibroblasts BALB 3T3 clone A31; test: as above; type: cell-based; conditions: PIF = CC50 −Irr/CC50 +Irr; PIF < 2 not phototoxic, 2 < PIF < 5 probable phototoxicity, PIF > 5 phototoxic
Protocol: as §3

SH-4 cells [5] = test: Annexin V-FITC/PI flow cytometry assay (apoptosis); type: cell-based, human; conditions: for Early apoptosis (Annexin V+/PI−, Q3) / Late apoptosis (Annexin V+/PI+, Q2) / Live (viable cells, Annexin V−/PI−, Q4) / Necrosis (Annexin V−/PI+, Q1): 1 6 µM, 1A 260 µM, 1B 260 µM, cisplatin 20 µM; for Early apoptosis (Annexin V+/PI−, Q3) / Late apoptosis (Annexin V+/PI+, Q2) / Live (viable cells, Annexin V−/PI−, Q4) / Necrosis (Annexin V−/PI+, Q1) / population fraction of total apoptotic cells: 1C 40 µM, 1D 8 µM
Protocol: Apoptosis was discriminated with the annexin V-FITC/PI test according to the manufacturer’s protocol (SIGMA-ALDRICH APOAF). […] After completion of each drug incubation, cell media that may contain cells in suspension was centrifuged at 350× g for 5 min. Subsequently, the cell monolayers were washed once with PBS, and cells were detached with trypsin and then collected together with a centrifuged pellet. The cells were washed twice with cold PBS and then resuspended in a Binding Buffer (0.1 M Hepes/NaOH (pH 7.4), 1.4 M NaCl, 25 mM CaCl2) at a concentration of 1 × 10^5 cells/mL. The cells were incubated with 5 µL of FITC Annexin V and 10 µL PI for 20 min at RT (25 °C) in the dark. The analysis was performed with BD FACS DIVA software version 7.0 (BD Biosciences, Franklin Lakes, NJ, USA). Data were analyzed as follows: lower left quadrant, viable cells (Annexin V−/PI−); lower right quadrant, early apoptotic cells (Annexin V+/PI−); upper right quadrant, late apoptotic cells (annexin V+/PI+); upper left quadrant, necrotic cells (annexin V−/PI+). Three independent experiments were performed, with two replicates per experiment.

[6] = irradiated with solar simulator 10 min (0.86 J), read-out: Mean CC50 ± SD, +Irr
[7] = without irradiation, read-out: Mean CC50 ± SD, −Irr

| IC50 (human melanoma SH-4; Homo sapiens) | melting point | SMILES | IC50 ([1]; Homo sapiens) | SI (Selective index) (human melanoma SH-4) | effect on cell cycle distribution (in words) (SH-4 cells [2]) | G2 phase, percentage of cells (SH-4 cells [2]) | S phase, percentage of cells (SH-4 cells [2]) | G0/G1 phase, percentage of cells (SH-4 cells [2]) | CC50 at 24 h [3, 6] | CC50 at 24 h [3, 7] | PIF (Photo Irritation Factor) [4] | Early apoptosis (Annexin V+/PI−, Q3) (SH-4 cells [5]; SH-4, 48 h) | Late apoptosis (Annexin V+/PI+, Q2) (SH-4 cells [5]; SH-4, 48 h) | Live (viable cells, Annexin V−/PI−, Q4) (SH-4 cells [5]; SH-4, 48 h) | Necrosis (Annexin V−/PI+, Q1) (SH-4 cells [5]; SH-4, 48 h) | also measured |
| --- | --- | --- | --- | --- | --- | --- | --- | --- | --- | --- | --- | --- | --- | --- | --- | --- |
| 258 ± 16.1 µM | 129 to 132 °C | CCOC(=O)c1cc(-c2ccc(Cl)cc2)n(C(Cc2ccccc2)C(=O)N/N=C/c2[nH]c(C)c(C(=O)OCC)c2C)c1C (stereo not drawn) [Compound 1B, Ethyl(E)-5-(4-chlorophenyl)-1-(1-(2-((4-(ethoxycarbonyl)-3,5-dimethyl-1H-pyrrol-2-yl)methylene)hydrazineyl)-1-oxo-3-phenylpropan-2-yl)-2-methyl-1H-pyrrole-3-carboxylate] | 544 ± 26.8 µM | 2.11 | slight increase in the S phase population | 13.6% | 34% | 50.2% | 2270 ± 55.4 µM | 2180 ± 154 µM | 0.96 | 48.9% | 6.1% | 44.6% | 0.46% | apoptotic potential higher than α-aldehyde derivative 1A (SH-4 cells [5]; SH-4, 48 h, 260 µM): 14% |
| 270 ± 13.5 µM | 109 to 112 °C | CCOC(=O)c1cc(-c2ccc(Cl)cc2)n(C(Cc2ccccc2)C(=O)N/N=C/c2[nH]c(C(=O)OCC)c(C)c2C(=O)OCC)c1C (stereo not drawn) [Compound 1A, Diethyl(E)-5-((2-(2-(5-(4-chlorophenyl)-3-(ethoxycarbonyl)-2-methyl-1H-pyrrol-1-yl)-3-phenylpropanoyl)hydrazineylidene)methyl)-3-methyl-1H-pyrrole-2,4-dicarboxylate] | 503 ± 31.1 µM | 1.87 | no significant changes in the cell cycle distribution | 14.8% | 24.5% | 59.8% | 2840 ± 124 µM | 3140 ± 167 µM | 1.11 | 36.5% | 4.78% | 58.2% | 0.50% | apoptotic activity (in words) (SH-4 cells [5]; SH-4, 48 h, 260 µM, versus Cisplatin 20 µM): comparable apoptotic activity with positive control |
| 44.6 ± 3.51 µM | > 230 °C | CCOC(=O)c1cc(-c2ccc(Cl)cc2)n(C(Cc2ccccc2)C(=O)N/N=C/c2c(C)[nH]c(C(=O)OCC)c2C)c1C (stereo not drawn) [Compound 1C, Ethyl(E)-4-((2-(2-(5-(4-chlorophenyl)-3-(ethoxycarbonyl)-2-methyl-1H-pyrrol-1-yl)-3-phenylpropanoyl)hydrazineylidene)methyl)-3,5-dimethyl-1H-pyrrole-2-carboxylate] | 171 ± 4.09 µM | 3.83 | induction of S-phase arrest | 24.5% | 38.5% and 38% | 35% | 1750 ± 31.7 µM | 1670 ± 41.5 µM | 0.95 | 39% | 7.13% | 53.4% | 0.43% | population fraction of total apoptotic cells (SH-4 cells [5]; SH-4, 48 h): around 46% |
| 8.72 ± 0.6 µM | > 230 °C | CCOC(=O)c1cc(-c2ccc(Cl)cc2)n(C(Cc2ccccc2)C(=O)N/N=C/c2c(C)[nH]c(C)c2C(=O)OCC)c1C (stereo not drawn) [Compound 1D, Ethyl(E)-5-(4-chlorophenyl)-1-(1-(2-((4-(ethoxycarbonyl)-2,5-dimethyl-1H-pyrrol-3-yl)methylene)hydrazineyl)-1-oxo-3-phenylpropan-2-yl)-2-methyl-1H-pyrrole-3-carboxylate] | 11 ± 0.42 µM | 1.26 | induction of S-phase arrest | 23.2% | 46.4% and 46% | 28.3% | 3370 ± 130 µM | 3800 ± 185 µM | 1.13 | 32.5% | 6.51% | 60.2% | 0.78% | population fraction of total apoptotic cells (SH-4 cells [5]; SH-4, 48 h): 39% |

The next lines start with the molecule.

| SMILES | IC50 (human melanoma SH-4; Homo sapiens) | melting point | IC50 ([1]; Homo sapiens) | SI (Selective index) (human melanoma SH-4) | effect on cell cycle distribution (in words) (SH-4 cells [2]) | G2 phase, percentage of cells (SH-4 cells [2]) | S phase, percentage of cells (SH-4 cells [2]) | G0/G1 phase, percentage of cells (SH-4 cells [2]) | CC50 at 24 h [3, 6] | CC50 at 24 h [3, 7] | PIF (Photo Irritation Factor) [4] | Early apoptosis (Annexin V+/PI−, Q3) (SH-4 cells [5]; SH-4, 48 h) | Late apoptosis (Annexin V+/PI+, Q2) (SH-4 cells [5]; SH-4, 48 h) | Live (viable cells, Annexin V−/PI−, Q4) (SH-4 cells [5]; SH-4, 48 h) | Necrosis (Annexin V−/PI+, Q1) (SH-4 cells [5]; SH-4, 48 h) | also measured |
| --- | --- | --- | --- | --- | --- | --- | --- | --- | --- | --- | --- | --- | --- | --- | --- | --- |
| N.N.[Cl][Pt][Cl] [Cisplatin, reference compound] |  |  |  |  |  | 17.7% | 61.3% | 17.8% |  |  |  | 36.4% | 2.59% |  | 0.34% | IC50 [1]: 8.64 ± 0.42 µM; IC50 (human melanoma SH-4): 22.8 ± 1.47 µM |
| CN(C)CCCN1c2ccccc2Sc2ccc(Cl)cc21 [Chlorpromazine, reference compound] |  |  |  |  |  |  |  |  | 9.13 ± 0.72 µM | 65.8 ± 2.64 µM | 7.21 |  |  |  |  |  |
| CCOC(=O)c1cc(-c2ccc(Cl)cc2)n(C(Cc2ccccc2)C(=O)NN)c1C (stereo not drawn) [Compound 1, Ethyl-5-(4-chlorophenyl)-1-(1-hydrazinyl-1-oxo-3-phenylpropan-2-yl)-2-methyl-1H-pyrrole-3-carboxylate] | 6.86 ± 0.6 µM | 170 to 173 °C | 9.64 ± 0.58 µM | 1.41 |  | 13.4% | 28.5% | 57% | 55.8 ± 4.49 µM | 52.3 ± 2.63 µM | 0.94 | 42.7% | 8.74% |  | 0.19% | viability at 6 µM (SH-4 cells [5]; Homo sapiens, SH-4, 48 h, read-out: Live (viable cells, Annexin V−/PI−, Q4)): 48.3%; increase of total apoptotic cell populations compared to the control group (SH-4 cells [5]; SH-4, 48 h incubation, 6 µM): 50% |

From publication PMC11643554, “Synthesis, Cytotoxicity and Antiproliferative Effect of New Pyrrole Hydrazones” (Molecules, 2024)
